Measured values taken from the NIST ThermoML archive (doi:10.1016/j.jct.2010.03.021).
Values joined by “and” are separate entries in the source; they are usually repeats but may differ in a detail not shown here. Equal values may be shown once.

Legend:
[1] = Crystal, Calculated from knudsen effusion weight loss
[2] = molar enthalpy of vaporization or sublimation; conditions: Crystal

O=[N+]([O-])c1ccccc1-n1cccc1 [1-(2-nitrophenyl)pyrrole]
[1]
Conditions	vapor or sublimation pressure
306.11 K	0.000106 kPa and 0.000108 kPa and 0.000109 kPa
308.2 K	0.000141 kPa and 0.000138 kPa and 0.000139 kPa
310.18 K	0.000181 kPa and 0.000173 kPa and 0.000174 kPa
312.12 K	0.000226 kPa and 0.000227 kPa and 0.000228 kPa
314.19 K	0.000291 kPa and 0.000284 kPa and 0.00029 kPa
316.18 K	0.000368 kPa and 0.000355 kPa and 0.000358 kPa
318.11 K	0.000464 kPa and 0.000466 kPa
320.18 K	0.0006 kPa and 0.000587 kPa and 0.000594 kPa
322.18 K	0.000764 kPa and 0.000733 kPa and 0.00074 kPa
324.12 K	0.000955 kPa and 0.000965 kPa and 0.000963 kPa
326.2 K	0.001224 kPa and 0.001209 kPa and 0.001238 kPa

[2], Clausius-Clapeyron Equation
Conditions	molar enthalpy [kcal/mol]
298.15 K	24.21
316.16 K	24

O=[N+]([O-])c1ccc(-n2cccc2)cc1 [1-(4-nitrophenyl)pyrrole]
[1]
Conditions	vapor or sublimation pressure
344.09 K	9.59e-05 kPa and 9.52e-05 kPa and 9.41e-05 kPa
346.13 K	0.000118 kPa and 0.000117 kPa
348.17 K	0.000145 kPa and 0.000144 kPa
350.09 K	0.000179 kPa and 0.000182 kPa and 0.000181 kPa
352.13 K	0.000219 kPa and 0.00022 kPa and 0.000227 kPa
354.18 K	0.00027 kPa and 0.000272 kPa and 0.000284 kPa
356.13 K	0.000344 kPa and 0.000343 kPa and 0.00034 kPa
358.2 K	0.00043 kPa and 0.000417 kPa and 0.000427 kPa
360.16 K	0.000505 kPa and 0.000525 kPa
362.07 K	0.000642 kPa and 0.000638 kPa and 0.000641 kPa
364.09 K	0.000766 kPa and 0.000762 kPa and 0.000783 kPa
366.16 K	0.000934 kPa and 0.000933 kPa

[2]
Conditions	molar enthalpy [kcal/mol]
298.15 K, Ebulliometric method (Recirculating still)	26.86
355.13 K, Clausius-Clapeyron Equation	26.2
